Measured values taken from patent US8841313B2, “CCR2 antagonists and uses thereof” (Boehringer Ingelheim International GmbH, priority 2010, dated 2014).

biological target: T1, CCR2 (Homo sapiens, UniProt P41597); assay: CCR2 receptor membrane binding assay ([125I]MCP-1, THP-1 membranes, SPA beads); conditions: THP-1 cell membranes, [125I]MCP-1 displacement, bound radioactivity after 8 h; read-out: hKi
T1 construct: Membranes were prepared from THP-1 cells; endogenous in cells; host or cells: THP-1 (human acute monocytic leukaemia cells), membrane preparation
T1 sequence (P41597 whole entry): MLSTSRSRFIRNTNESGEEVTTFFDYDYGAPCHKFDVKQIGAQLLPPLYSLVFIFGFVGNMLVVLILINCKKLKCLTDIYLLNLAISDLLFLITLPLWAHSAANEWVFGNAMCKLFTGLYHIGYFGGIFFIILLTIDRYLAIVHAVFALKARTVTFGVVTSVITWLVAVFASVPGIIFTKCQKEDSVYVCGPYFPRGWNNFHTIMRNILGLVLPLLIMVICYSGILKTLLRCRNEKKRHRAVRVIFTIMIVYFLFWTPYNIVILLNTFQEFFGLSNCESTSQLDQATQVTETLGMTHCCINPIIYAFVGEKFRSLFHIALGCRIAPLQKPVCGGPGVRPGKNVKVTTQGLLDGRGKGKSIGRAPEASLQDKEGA
Protocol: The above exemplary substances have been tested for binding to CCR2 using a binding assay as outlined herein below:
THP-1 cells (human acute monocytic leukaemia cells) were cultured under standardized conditions at 37° C. and 5% CO2 in a humidified incubator. THP-1 cells were cultivated in RPMI 1640 medium (Gibco 21875) containing 1% MEM-NEAA (Gibso 11140) 2 mM L-glutamine, 1.5 g/L sodium bicarbonate, 4.5 g/L glucose, 10 mM HEPES and 1.0 mM sodium pyruvate, 90%; 10% fetal calf serum (FCS Gibco 10500-064).
Membranes were prepared from THP-1 cells. THP-1 cells were centrifuged at 300×g at 4° C. for 10 min. The cell pellet was resuspended in Phosphate Buffer Saline (PBS, including 10 μM Pefabloc and a protease inhibitor mix ‘complete’, Boehringer Mannheim (1 tablet/50 ml)), to a concentration of […]. The membrane preparation was performed by disrupting the cells by nitrogen […] (at 50 bar, for 1 h) in a “Nitrogen Bombe” (Parr Instrument). Cell debris was removed by centrifugation (800×g at 4° C., 1 min). The supernatant was centrifuged at 80000×g, 4° C. for 30 min to sediment the cell membranes. Usually 50 mg of protein (Bradford assay) were yielded from 1×10E9 cells. The membranes were resuspended in 25 mM HEPES, 25 mM MgCl2, 1 mM CaCl2, 10% Glycerine for storage in aliquots at −80° C. in 25 mM HEPES, 25 mM MgCl2, 1 mM CaCl2, 10% Glycerine and stored at −80° C.
Perkin Elmer NEX 332 Jod 125 MCP-1, Stock: 2200 Ci/mmol solved in 2000 μl assay buffer, stored at −20° C. THP-1 membrane were adjusted with 25 mM HEPES, pH 7.2; 5 mM MgCl2; 0.5 mM CaCl2; 0.2% BSA assay buffer to a concentration of 2.5 μg/15 μl. Amersham Biosciences PVT-WGA Beads (RPNQ0001) were adjusted with assay buffer to a concentration of 0.24 mg/30 μl. For preparation of the membrane-bead-suspension membranes and beads were incubated for 30 min at RT under rotation (60 rpm) with a ratio of 1:2. Test compounds dissolved in 100% DMSO to a concentration of 10 mM and are further diluted with 100% DMSO to 1 mM. All additional compound dilutions were obtained with assay buffer, final 1% DMSO. Compounds, membrane-bead-suspension and [125I]MCP-1 (ca. 25000 cpm/10 μl) were incubated. Bound radioactivity was determined by scintillation counter after 8 h. Determination of affinity of test compounds (dissociation constant hKi) is calculated by iterative fitting of experimental data using the “easy sys” program, which is based on law of mass action (Schittkowski K. (1994), Numerische Mathematik, Vol. 68, 129-142).

Row | Structure (SMILES) | Ki [nM]
1 | COC1COCCC1NC1CCN(C(=O)c2ncnc(Oc3cccc(C(F)(F)F)c3)c2C)CC1 (stereo not shown) [Example 1] | 278
2 | COC1COCCC1NC1CCN(C(=O)c2ncnc(OCc3ccc(C(C)(C)C)cc3)c2C)CC1 (stereo not shown) [Example 2] | 21
3 | COC1COCCC1NC1CCN(C(=O)c2ncnc(OCc3ccc(Cl)c(Cl)c3)c2C)CC1 (stereo not shown) [Example 2a] | 8
4 | COC1COCCC1NC1CCN(C(=O)c2ncnc(OCc3ccc(C(F)(F)F)c(Cl)c3)c2C)CC1 (stereo not shown) [Example 2b] | 8
5 | COC1COCCC1NC1CCN(C(=O)c2ncnc(OCc3cc(Cl)cc(Cl)c3)c2C)CC1 (stereo not shown) [Example 2c] | 18
6 | CO[C@@H]1COCC[C@@H]1NC1CCN(C(=O)c2ncnc(OCc3ccc(Cl)c(Cl)c3)c2C)CC1 [Example 2d] | 12
7 | CO[C@H]1COCC[C@H]1NC1CCN(C(=O)c2ncnc(OC[C@H]3CCC[C@@H](c4ccc(OC(F)(F)F)cc4)O3)c2C)CC1 [Example 3] | 45

Continued, values first:

Row | Ki [nM] | Structure (SMILES)
8 | 23 | CO[C@@H]1COCC[C@@H]1NC1CCN(C(=O)c2nccc(OCc3ccc(C(C)(C)C)cc3)c2C)CC1 [Example 3a]
9 | 108 | CO[C@H]1COCC[C@H]1NC1CCN(C(=O)c2nccc(OCc3ccc(C(C)(C)C)cc3)c2C)CC1 [Example 3b]
10 | 14 | COc1nc(OCc2ccc(C(F)(F)F)cc2)c(C)c(C(=O)N2CCC(N[C@@H]3CCOC[C@@H]3OC)CC2)n1 [Example 3c]
11 | 4 | COc1nc(OCc2ccc(C(F)(F)F)cc2)c(C)c(C(=O)N2CCC(N[C@H]3CCOC[C@H]3OC)CC2)n1 [Example 3d]
12 | 9 | CO[C@H]1COCC[C@H]1NC1CCN(C(=O)c2nc(C(F)(F)F)nc(OCc3ccc(C(C)(C)C)cc3)c2C)CC1 [Example 3e]
13 | 7 | CO[C@@H]1COCC[C@@H]1NC1CCN(C(=O)c2nc(C(F)(F)F)nc(OCc3ccc(C(C)(C)C)cc3)c2C)CC1 [Example 3f]
14 | 2 | COc1nc(OCc2ccc(C(C)(C)C)cc2)c(C)c(C(=O)N2CCC(N[C@H]3CCOC[C@H]3OC)CC2)n1 [Example 3g]
15 | 18 | COc1nc(OCc2cccc(C(F)(F)F)c2)c(C)c(C(=O)N2CCC(N[C@H]3CCOC[C@H]3OC)CC2)n1 [Example 3h]
16 | 4 | COc1nc(OCc2ccc(C(C)(C)C)cc2)c(C)c(C(=O)N2CCC(N[C@@H]3CCOC[C@@H]3OC)CC2)n1 [Example 3i]
17 | 3 | COc1nc(OCc2ccc(C(F)(F)F)c(Cl)c2)c(C)c(C(=O)N2CCC(N[C@H]3CCOC[C@H]3OC)CC2)n1 [Example 3j]
18 | 8 | COc1nc(OCc2ccc(C(F)(F)F)c(Cl)c2)c(C)c(C(=O)N2CCC(N[C@@H]3CCOC[C@@H]3OC)CC2)n1 [Example 3k]
19 | 8 | COc1nc(OCc2ccc(Cl)c(F)c2)c(C)c(C(=O)N2CCC(N[C@H]3CCOC[C@H]3OC)CC2)n1 [Example 3l]
20 | 10 | COc1nc(OCc2ccc(Cl)c(Cl)c2)c(C)c(C(=O)N2CCC(N[C@H]3CCOC[C@H]3OC)CC2)n1 [Example 3m]
21 | 16 | CO[C@@H]1COCC[C@@H]1NC1CCN(C(=O)c2nc(C(F)(F)F)nc(OCc3ccc(Cl)c(Cl)c3)c2C)CC1 [Example 3n]
22 | 18 | CO[C@@H]1COCC[C@@H]1NC1CCN(C(=O)c2nc(C(F)(F)F)nc(OCc3cc(Cl)cc(Cl)c3)c2C)CC1 [Example 3o]
